Assay results published in patent publication US4961920A, “Phototherapeutic monovinyl and divinyl ether-linked dimers” (Luminis Pty, Ltd., priority 1988, dated 1990).

Tested on: Lewis lung carcinoma cells
Assay: Photosensitization of tumors: days for Lewis lung carcinoma to regrow to palpable tumor in mice after red-light irradiation
Type: in vivo
Conditions: 25-60 mg/kg, i.p. or i.v.; red light 24 h after dosing; groups of 10 C57BL mice; end point 5 out of 10 mice regrow palpable tumor
From the text: Lewis lung carcinoma cells (Dr. L. Dent, Flinders Medical Centre), are transplanted into the back of C57BL mice by subcutaneous injection of approximately 10^6 cells per mouse. […] Twenty-four hours later mice are anesthetized, the fur over the tumor shaved, and a 1 cm diameter area over the tumor is irradiated with red light as specified. Mice are palpated daily for recurrence of tumor. The end point is the number of days for 5 out of 10 mice to regrow palpable tumor.
Light can be supplied by a gold metal vapor laser (Quentron Optica Pty. Ltd.) with wavelength 627.8 nm. This laser generates average light intensities of 400 mW coupled to a 400 um quartz fiber and can be positioned to create a 1 cm diameter spot.
Data were recorded as "TC50 "--the first time (in days) after treatment for the tumor to regrow to a palpable stage (as shown in Table 1).

## Divinyldeuteroporphyrin Ether-linked Dimer [(1) where both R = vinyl]
  TC50 (first time after treatment for the tumor to regrow to a palpable stage): 7 days

## Monohydroxyethyl Monovinyl Deuteroporphyrin Ether-linked Dimer
  TC50 (first time after treatment for the tumor to regrow to a palpable stage): 3 days
